Experimental data: US9708259B2 (Hoffmann-La Roche Inc., priority 2013, dated 2017)
Substitutions are numbered along the chain they refer to. Where two headings read alike, the source gives them in different places.

Experiments:
[1] = target: T1, human M1 (Homo sapiens, UniProt P11229); assay: M1 PAM assay (FLIPR intracellular calcium), human M1; format: cell-based
T1 construct: expressed in transfected cells; host or cells: CHO cells
T1 sequence (P11229 1-460): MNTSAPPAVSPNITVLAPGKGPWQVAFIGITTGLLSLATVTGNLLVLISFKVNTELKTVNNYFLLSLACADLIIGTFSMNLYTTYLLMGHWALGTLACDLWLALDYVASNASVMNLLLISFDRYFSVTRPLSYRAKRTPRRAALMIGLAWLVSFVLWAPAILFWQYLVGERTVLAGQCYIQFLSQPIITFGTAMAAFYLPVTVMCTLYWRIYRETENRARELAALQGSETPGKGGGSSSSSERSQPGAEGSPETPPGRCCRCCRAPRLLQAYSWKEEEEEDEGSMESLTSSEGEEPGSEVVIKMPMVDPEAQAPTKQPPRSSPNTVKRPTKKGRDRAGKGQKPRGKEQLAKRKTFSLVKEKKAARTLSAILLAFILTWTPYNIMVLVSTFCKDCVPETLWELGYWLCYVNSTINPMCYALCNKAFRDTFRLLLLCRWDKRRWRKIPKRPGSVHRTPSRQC
In short: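 CHO cells expressing M1, Fluo-4AM-loaded, in HEPES/probenecid HBSS pH 7.4, 1% DMSO final. Compounds pre-incubated 2 min for agonist activity versus 30 nM acetylcholine control. For PAM activity, acetylcholine EC20 added after the 2 min pre-incubation, then 2 min more before FLIPR intracellular Ca2+ read.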

[2] = target: T2, ratM1 (Rattus norvegicus, UniProt P08482); assay: M1 PAM assay (FLIPR intracellular calcium), rat M1; format: cell-based
T2 construct: expressed in transfected cells; host or cells: CHO cells (stated generally for the assay, not specifically for rat M1)
T2 sequence (P08482 1-460): T1 sequence (P11229 1-460) with A5V, T254S, P309S, R320K, A337G, I413V

[3] = CHO human M1 cells, FLIPR Ca2+, with EC20 of acetylcholine, first value of the cell, read-out: hM1 EC50
[4] = rat M1, FLIPR Ca2+, second value of the cell, read-out: ratM1 EC50

**Q.** Which EC50 [1] does the source give for `O=C(N[C@H]1CCCC[C@@H]1O)c1cn(Cc2cc(F)cc(F)c2)c2cccc(F)c12` [Example 43, 1-(3,5-difluorobenzyl)-4-fluoro-N-((1S,2S)-2-hydroxycyclohexyl)-1H-indole-3-carboxamide] here?
**A.** Its EC50 is 0.488 µM.

**Q.** What about the EC50 [2] of the same compound?
**A.** Its EC50 is 0.632 µM.

**Q.** What does the source list for `Cn1ncc2cc(Cn3cc(C(=O)NC4CCOCC4)c4c(F)cccc43)ccc21` [Example 66, 4-fluoro-1-((1-methyl-1H-indazol-5-yl)methyl)-N-(tetrahydro-2H-pyran-4-yl)-1H-indole-3-carboxamide]?
**A.** EC50 [1]: 0.216 µM; EC50 [2]: 0.412 µM

**Q.** Which EC50 [1, 3] does the source give for `Cn1cc(-c2ccc(Cn3cc(C(=O)NCC4COC4)c4c(F)cccc43)cc2)cn1` [Example 13, 4-fluoro-1-(4-(1-methyl-1H-pyrazol-4-yl)benzyl)-N-(oxetan-3-ylmethyl)-1H-indole-3-carboxamide] here?
**A.** The EC50 was 0.192 µM.

**Q.** And the EC50 [2, 4]?
**A.** The EC50 was 0.25 µM.

**Q.** Which EC50 [1, 3] does the source give for `Cn1cc(-c2ccc(Cn3cc(C(=O)N[C@H]4COCC[C@@H]4O)c4c(F)cccc43)c(F)c2)cn1` [Example 22, 4-fluoro-1-(2-fluoro-4-(1-methyl-1H-pyrazol-4-yl)benzyl)-N-((3S,4S)-4-hydroxytetrahydro-2H-pyran-3-yl)-1H-indole-3-carboxamide] here?
**A.** Its EC50 is 0.0178 µM.

**Q.** And the EC50 [2, 4]?
**A.** Its EC50 is 0.0605 µM.

**Q.** Which EC50 [1] does the source give for `Cn1cnc2cc(Cn3cc(C(=O)N[C@H]4CCCC[C@@H]4O)c4c(F)cccc43)ccc21` [Example 56, 4-fluoro-N-((1S,2S)-2-hydroxycyclohexyl)-1-((1-methyl-1H-benzo[d]yridine-5-yl)methyl)-1H-indole-3-carboxamide] here?
**A.** The EC50 was 0.136 µM.

**Q.** What about the EC50 [2] of the same compound?
**A.** The EC50 was 0.285 µM.

**Q.** With `Cc1ccc(F)c2c(C(=O)NC3CCOCC3)cn(Cc3ccc4c(cnn4C)c3)c12` [Example 134, 4-fluoro-7-methyl-1-((1-methyl-1H-indazol-5-yl)methyl)-N-(tetrahydro-2H-pyran-4-yl)-1H-indole-3-carboxamide] as the compound, how does the EC50 [1] read?
**A.** The EC50 was 0.025 µM.

**Q.** What about the EC50 [2] of the same compound?
**A.** Its EC50 is 0.076 µM.

**Q.** With `O=C(NC1CCOCC1)c1cn(Cc2ccc(-c3nc[nH]n3)cc2)c2cccc(F)c12` [Example 157, 1-(4-(1H-1,2,4-triazol-3-yl)benzyl)-4-fluoro-N-(tetrahydro-2H-pyran-4-yl)-1H-indole-3-carboxamide] as the compound, how does the EC50 [1, 3] read?
**A.** Its EC50 is 0.095 µM.

**Q.** And the EC50 [2, 4]?
**A.** The EC50 was 0.117 µM.

**Q.** For `NC(=O)c1ccc(Cn2cc(C(=O)N[C@H]3CCOC[C@@H]3O)c3c(F)cccc32)cc1` (racemic) [Example 15, 1-(4-carbamoylbenzyl)-4-fluoro-N-((3RS,4SR)-3-hydroxytetrahydro-2H-pyran-4-yl)-1H-indole-3-carboxamide], which EC50 [1, 3] is on record?
**A.** Its EC50 is 0.0124 µM.

**Q.** What about the EC50 [2, 4] of the same compound?
**A.** Its EC50 is 0.00961 µM.

**Q.** Which EC50 [1, 3] does the source give for `Cc1cn(-c2ccc(Cn3cc(C(=O)NC4CCOCC4)c4c(F)cccc43)cc2)cn1` [Example 67, 4-fluoro-1-(4-(4-methyl-1H-imidazol-1-yl)benzyl)-N-(tetrahydro-2H-pyran-4-yl)-1H-indole-3-carboxamide] here?
**A.** Its EC50 is 0.0828 µM.

**Q.** What about the EC50 [2, 4] of the same compound?
**A.** Its EC50 is 0.183 µM.

**Q.** What does the source list for `CNC(=O)c1ccc(Cn2cc(C(=O)NC3CCOC(C)C3)c3c(F)cccc32)cc1` (stereo not drawn) [Example 127, 4-fluoro-1-[[4-(methylcarbamoyl)phenyl]methyl]-N-(2-methyloxan-4-yl)indole-3-carboxamide]?
**A.** EC50 [1, 3]: 0.019 µM; EC50 [2, 4]: 0.026 µM

**Q.** What does the source list for `CNC(=O)c1ccc(Cn2cc(C(=O)NC3CCCC3)c3c(F)cccc32)cc1` [Example 113, N-cyclopentyl-4-fluoro-1-[[4-(methylcarbamoyl)phenyl]methyl]indole-3-carboxamide]?
**A.** EC50 [1, 3]: 0.034 µM; EC50 [2, 4]: 0.077 µM

**Q.** How did the EC50 [1, 3] turn out when `Cn1cc(-c2ccc(Cn3cc(C(=O)NC4CCC4)c4c(F)cccc43)cc2)cn1` [Example 11, N-cyclobutyl-4-fluoro-1-(4-(1-methyl-1H-pyrazol-4-yl)benzyl)-1H-indole-3-carboxamide] was run?
**A.** Its EC50 is 0.413 µM.

**Q.** And the EC50 [2, 4]?
**A.** The EC50 was 0.618 µM.

**Q.** How did the EC50 [1, 3] turn out when `Cn1cc(-c2ccc(Cn3cc(C(=O)N[C@H]4CCCC[C@@H]4O)c4c(F)cccc43)cc2)cn1` [Example 44, 4-fluoro-N-((1S,2S)-2-hydroxycyclohexyl)-1-(4-(1-methyl-1H-pyrazol-4-yl)benzyl)-1H-indole-3-carboxamide] was run?
**A.** Its EC50 is 0.006 µM.

**Q.** What about the EC50 [2, 4] of the same compound?
**A.** The EC50 was 0.0098 µM.

**Q.** How did the EC50 [1, 3] turn out when `O=C(N[C@H]1CCCC[C@@H]1O)c1cn(Cc2ccc(-n3ccnc3)nc2)c2cccc(F)c12` [Example 142, 1-((6-(1H-imidazol-1-yl)pyridin-3-yl)methyl)-4-fluoro-N-((1S,2S)-2-hydroxycyclohexyl)-1H-indole-3-carboxamide] was run?
**A.** Its EC50 is 0.075 µM.

**Q.** What about the EC50 [2, 4] of the same compound?
**A.** The EC50 was 0.21 µM.

**Q.** Which results are given for `Cn1cc(-c2ccc(Cn3cc(C(=O)N[C@H]4CCOC[C@@H]4O)c4c(F)cccc43)c(F)c2)cn1` (mixture of isomers) [Example 6, 4-fluoro-1-(2-fluoro-4-(1-methyl-1H-pyrazol-4-yl)benzyl)-N-((3R,4RS)-3-hydroxytetrahydro-2H-pyran-4-yl)-1H-indole-3-carboxamide]?
**A.** EC50 [1, 3]: 0.07 µM; EC50 [2, 4]: 0.147 µM

**Q.** For `Cn1cc(-c2ccc(Cn3cc(C(=O)NC4CCOCC4)c4c(F)ccc(F)c43)cc2)cn1` [Example 95, 4,7-difluoro-1-(4-(1-methyl-1H-pyrazol-4-yl)benzyl)-N-(tetrahydro-2H-pyran-4-yl)-1H-indole-3-carboxamide], which EC50 [1, 3] is on record?
**A.** Its EC50 is 0.027 µM.

**Q.** What about the EC50 [2, 4] of the same compound?
**A.** The EC50 was 0.05 µM.

**Q.** Which EC50 [1] does the source give for `CCc1ccc(F)c2c(C(=O)NC3CCOCC3)cn(Cc3ccc4c(cnn4C)c3)c12` [Example 128, 7-ethyl-4-fluoro-1-((1-methyl-1H-indazol-5-yl)methyl)-N-(tetrahydro-2H-pyran-4-yl)-1H-indole-3-carboxamide] here?
**A.** The EC50 was 0.289 µM.

**Q.** And the EC50 [2]?
**A.** The EC50 was 1.24 µM.

**Q.** What does the source list for `Cn1cc(-c2ccc(Cn3cc(C(=O)N[C@H]4CCC[C@@H]4O)c4c(F)cccc43)c(F)c2)cn1` [Example 17, 4-Fluoro-1-(2-fluoro-4-(1-methyl-1H-pyrazol-4-yl)benzyl)-N-((1S,2S)-2-hydroxycyclopentyl)-1H-indole-3-carboxamide]?
**A.** EC50 [1, 3]: 0.1 µM; EC50 [2, 4]: 0.169 µM

**Q.** `NC(=O)c1ccc(Cn2cc(C(=O)N[C@H]3CCCC[C@@H]3O)c3c(F)cccc32)cc1` [Example 77, 1-(4-carbamoylbenzyl)-4-fluoro-N-((1S,2S)-2-hydroxycyclohexyl)-1H-indole-3-carboxamide] was tested. Which EC50 [1, 3] did it give?
**A.** Its EC50 is 0.00221 µM.

**Q.** And the EC50 [2, 4]?
**A.** Its EC50 is 0.00247 µM.

**Q.** Which EC50 [1, 3] does the source give for `Cn1cc(-c2ccc(Cn3cc(C(=O)N[C@H]4CCCC[C@@H]4O)c4c(F)cccc43)c(F)c2)cn1` [Example 1] here?
**A.** The EC50 was 0.00564 µM.

**Q.** And the EC50 [2, 4]?
**A.** Its EC50 is 0.0626 µM.

**Q.** For `O=C(N[C@H]1CCCC[C@@H]1O)c1cn(Cc2cnc(-c3ccccc3)nc2)c2cccc(F)c12` [Example 139, 4-fluoro-N-((1S,2S)-2-hydroxycyclohexyl)-1-((2-phenylpyrimidin-5-yl)methyl)-1H-indole-3-carboxamide], which EC50 [1, 3] is on record?
**A.** Its EC50 is 0.423 µM.

**Q.** What about the EC50 [2, 4] of the same compound?
**A.** The EC50 was 2.63 µM.

**Q.** Which results are given for `COc1ccc(F)c2c(C(=O)N[C@H]3CCCC[C@@H]3O)cn(Cc3ccc(-c4cnn(C)c4)cc3)c12` [Example 148, 4-fluoro-N-((1S,2S)-2-hydroxycyclohexyl)-7-methoxy-1-(4-(1-methyl-1H-pyrazol-4-yl)benzyl)-1H-indole-3-carboxamide]?
**A.** EC50 [1, 3]: 0.084 µM; EC50 [2, 4]: 0.139 µM

**Q.** What does the source list for `Cn1cc(-c2ccc(Cn3cc(C(=O)NC4CCOCC4)c4c(F)ccc(F)c43)c(F)c2)cn1` [Example 96, 4,7-difluoro-1-(2-fluoro-4-(1-methyl-1H-pyrazol-4-yl)benzyl)-N-(tetrahydro-2H-pyran-4-yl)-1H-indole-3-carboxamide]?
**A.** EC50 [1, 3]: 0.028 µM; EC50 [2, 4]: 0.073 µM

**Q.** `O=C(N[C@H]1CCCC[C@@H]1O)c1cn(Cc2ccc(-c3cnco3)cc2)c2cccc(F)c12` [Example 137, 4-fluoro-N-((1S,2S)-2-hydroxycyclohexyl)-1-(4-(oxazol-5-yl)benzyl)-1H-indole-3-carboxamide] was tested. Which EC50 [1, 3] did it give?
**A.** The EC50 was 0.009 µM.

**Q.** And the EC50 [2, 4]?
**A.** The EC50 was 0.034 µM.

**Q.** How did the EC50 [1, 3] turn out when `Cc1ccc(F)c2c(C(=O)NC3CCOCC3)cn(Cc3ccc(-c4cnn(C)c4)cc3)c12` [Example 49, 4-fluoro-7-methyl-1-(4-(1-methyl-1H-pyrazol-4-yl)benzyl)-N-(tetrahydro-2H-pyran-4-yl)-1H-indole-3-carboxamide] was run?
**A.** Its EC50 is 0.0445 µM.

**Q.** And the EC50 [2, 4]?
**A.** The EC50 was 0.0525 µM.

**Q.** How did the EC50 [1] turn out when `COc1ccc(F)c2c(C(=O)NC3CCOCC3)cn(Cc3ccc4c(cnn4C)c3)c12` [Example 154, 4-fluoro-7-methoxy-1-((1-methyl-1H-indazol-5-yl)methyl)-N-(tetrahydro-2H-pyran-4-yl)-1H-indole-3-carboxamide] was run?
**A.** Its EC50 is 0.272 µM.

**Q.** And the EC50 [2]?
**A.** Its EC50 is 0.837 µM.

**Q.** With `CNC(=O)c1ccc(Cn2cc(C(=O)NC3CCCCC3F)c3c(F)cccc32)cc1` (stereo not drawn) [Example 121, 4-fluoro-N-(2-fluorocyclohexyl)-1-[[4-(methylcarbamoyl)phenyl]methyl]indole-3-carboxamide] as the compound, how does the EC50 [1, 3] read?
**A.** Its EC50 is 0.006 µM.

**Q.** And the EC50 [2, 4]?
**A.** Its EC50 is 0.017 µM.
